According to patent US9062057B2, “CCR5 antagonists for treating HIV” (Purdue Research Foundation, priority 2010, dated 2015):

Target: CCR5 chemokine receptor (Homo sapiens, UniProt P51681)
Assay: Inhibition Data (IC50; no method described)
Details: assay not described, read-out: Activity (*) (IC50 class)

Sequence of CCR5 chemokine receptor (P51681 whole entry): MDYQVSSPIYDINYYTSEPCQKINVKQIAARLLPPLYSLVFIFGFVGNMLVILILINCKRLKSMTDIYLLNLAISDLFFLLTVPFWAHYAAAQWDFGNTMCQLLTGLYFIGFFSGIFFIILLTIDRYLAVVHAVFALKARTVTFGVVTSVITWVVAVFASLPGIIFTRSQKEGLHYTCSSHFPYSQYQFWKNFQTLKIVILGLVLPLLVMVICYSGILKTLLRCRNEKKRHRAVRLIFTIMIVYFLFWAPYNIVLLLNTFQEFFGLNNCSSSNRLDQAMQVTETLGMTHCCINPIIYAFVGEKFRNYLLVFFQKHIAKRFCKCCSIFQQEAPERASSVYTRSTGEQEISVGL

| Compound | IC50 |
| --- | --- |
| CN(C[C@@](C)(CCN1CC[C@@H]2[C@@H](CCN2C(=O)OC(C)(C)C)C1)c1ccccc1)S(=O)(=O)c1ccccc1 [Example 1] | < 1 nM |
| CN(C[C@@](C)(CCN1CC[C@H]2[C@H](CCN2C(=O)OC(C)(C)C)C1)c1ccccc1)S(=O)(=O)c1ccccc1 [Example 2] | < 1000 nM |
| CN(C[C@@](C)(CCN1CC[C@H]2[C@H](CCN2C(=O)OC(C)(C)C)C1)c1ccccc1)S(=O)(=O)c1ccc(CNC(=O)O[C@H]2CCOC2)cc1 [Example 3] | < 1000 nM |
| CN(C[C@@](C)(CCN1CC[C@@H]2[C@@H](CCN2C(=O)OC(C)(C)C)C1)c1ccccc1)S(=O)(=O)c1ccc(CNC(=O)O[C@H]2CCOC2)cc1 [Example 4] | < 1 nM |
| CN(C[C@@](C)(CCN1C2CCC1CC(NC(=O)OCc1ccccc1)C2)c1ccccc1)S(=O)(=O)c1ccccc1 (some centres unmarked) [Example 5] | < 100 nM |
| CN(C[C@@](C)(CCN1C2CCC1CC(NC(=O)OCc1ccccc1)C2)c1ccccc1)S(=O)(=O)c1ccccc1 (some centres unmarked) [Example 6] | < 100 nM |
| CN(C[C@@](C)(CCN1CC[C@H]2CN(C(=O)OCc3ccccc3)C[C@H]2C1)c1ccccc1)S(=O)(=O)c1ccccc1 [Example 7] | < 100 nM |
| CN(C[C@@](C)(CCN1CC[C@H]2CNC[C@H]2C1)c1ccccc1)S(=O)(=O)c1ccccc1 [Example 8] | < 1000 nM |
| CN(C[C@@](C)(CCN1CC[C@H]2CN(C(=O)OC(C)(C)C)C[C@H]2C1)c1ccccc1)S(=O)(=O)c1ccccc1 [Example 9] | < 100 nM |
| CN(C[C@@](C)(CCN1C[C@H]2CCN(C(=O)OC(C)(C)C)C[C@H]2C1)c1ccccc1)S(=O)(=O)c1ccccc1 [Example 10] | < 100 nM |
| CN(C[C@@](C)(CCN1CC[C@H]2CN(C(=O)OCc3ccccc3)C[C@H]2C1)c1ccccc1)S(=O)(=O)c1ccccc1 [Example 11] | < 100 nM |
| C[C@@H](NC(=O)N1CC2CCN(CC[C@](C)(CN(C)S(=O)(=O)c3ccccc3)c3ccccc3)C[C@@H]2C1)c1ccccc1 (some centres unmarked) [Example 12] | < 100 nM |
| C[C@@H](NC(=O)N1CC2CCN(CC[C@](C)(CN(C)S(=O)(=O)c3ccccc3)c3ccccc3)C[C@@H]2C1)c1ccccc1 (some centres unmarked) [Example 13] | < 100 nM |
| C[C@H](NC(=O)N1C[C@H]2CN(CC[C@](C)(CN(C)S(=O)(=O)c3ccccc3)c3ccccc3)CC[C@H]2C1)c1ccccc1 [Example 14] | < 1000 nM |
| C[C@H](c1ccccc1)N(C)C(=O)N1C[C@H]2CN(CC[C@](C)(CN(C)S(=O)(=O)c3ccccc3)c3ccccc3)CC[C@H]2C1 [Example 15] | < 100 nM |
| Cc1nnc(C(C)C)n1C1CC2CCC(C1)N2CC[C@](C)(CN(C)S(=O)(=O)c1ccccc1)c1ccccc1 (some centres unmarked) [Example 16] | < 10 nM |
| C[C@H](NC(=O)N1CC2CN(CC[C@](C)(CN(C)S(=O)(=O)c3ccccc3)c3ccccc3)CC[C@H]2C1)c1cccc2ccccc12 (some centres unmarked) [Example 17] | < 1000 nM |
| Cc1ccc(S(=O)(=O)N2C[C@H]3CN(CC[C@](C)(CN(C)S(=O)(=O)c4ccccc4)c4ccccc4)CC[C@H]3C2)cc1 [Example 18] | < 1000 nM |
| Cc1nc(COC(=O)N2C[C@H]3CN(CC[C@](C)(CN(C)S(=O)(=O)c4ccccc4)c4ccccc4)CC[C@H]3C2)c(C)o1 [Example 19] | < 1000 nM |
| CC(C)COC(=O)NC1CC2CCC(C1)N2CC[C@](C)(CN(C)S(=O)(=O)c1ccccc1)c1ccccc1 (some centres unmarked) [Example 20] | < 100 nM |
| CN(C[C@@](C)(CCN1C2CCC1CC(NC(=O)O[C@H]1CCOC1)C2)c1ccccc1)S(=O)(=O)c1ccccc1 (some centres unmarked) [Example 21] | < 100 nM |
| CN(C[C@@](C)(CCN1CC2CCN(C(=O)OC(C)(C)C)C2C1)c1ccccc1)S(=O)(=O)c1ccccc1 (some centres unmarked) [Example 22] | < 1000 nM |

| Compound | IC50 |
| --- | --- |
| CN(CC(C)(CCN1CCC2C(CCN2C(=O)OC(C)(C)C)C1)c1ccccc1)S(=O)(=O)c1ccccc1 (centres unmarked) [Example 25] | < 10 nM |
| CC(C)(C)OC(=O)N1CCC2CN(C(=O)[C@H](Cc3ccccc3)NC(=O)OCc3ccccc3)CCC21 (some centres unmarked) [Example 26] | < 1000 nM |
| CC(C)(C)OC(=O)N1CCC2CN(C(=O)[C@@H](N)Cc3ccccc3)CCC21 (some centres unmarked) [Example 27] | < 1000 nM |
| CN(CC(C)(CCN1CCC2C(CCN2C(=O)OC2CO[C@H]3OCCC23)C1)c1ccccc1)S(=O)(=O)c1ccccc1 (some centres unmarked) [Example 28] | < 100 nM |
| CN(CC(C)(CCN1CCC2C(CCN2C(=O)OC2CCOC2)C1)c1ccccc1)S(=O)(=O)c1ccccc1 (centres unmarked) [Example 29] | < 1000 nM |
| CO[C@@](CCN1CCC2C(CCN2C(=O)OC(C)(C)C)C1)(CN(C)S(=O)(=O)c1ccccc1)c1ccccc1 (some centres unmarked) [Example 30] | < 1000 nM |
| CO[C@](CCN1CCC2C(CCN2C(=O)OC(C)(C)C)C1)(CN(C)S(=O)(=O)c1ccccc1)c1ccccc1 (some centres unmarked) [Example 31] | < 1000 nM |
| CN(CC(C)(CCN1CCC2C(CCN2C(=O)OC(C)(C)C)C1)c1ccccc1)S(=O)(=O)c1ccccc1 (centres unmarked) [Example 32] | < 100 nM |
| CN(CC(C)(CCN1CCC2C(CCN2C(=O)OC(C)(C)C)C1)c1ccccc1)S(=O)(=O)c1ccc(C(=O)OCc2ccccc2)cc1 (centres unmarked) [Example 33] | < 1000 nM |
| CN(CC(C)(CCN1CCC2C(CCN2C(=O)OC(C)(C)C)C1)c1ccccc1)S(=O)(=O)c1ccc(C(=O)O)cc1 (centres unmarked) [Example 34] | < 100 nM |
| CC(=O)OC(OC(C)=O)c1ccc(S(=O)(=O)N(C)CC(C)(CCN2CCC3C(CCN3C(=O)OC(C)(C)C)C2)c2ccccc2)cc1 (centres unmarked) [Example 35] | < 100 nM |
| COC(OC)c1ccc(S(=O)(=O)N(C)CC(C)(CCN2CCC3C(CCN3C(=O)OC(C)(C)C)C2)c2ccccc2)cc1 (centres unmarked) [Example 36] | < 100 nM |
| CN(CC(C)(CCN1CCC2C(CCN2C(=O)OC(C)(C)C)C1)c1ccccc1)S(=O)(=O)c1ccc(CNC(=O)OCc2ccccc2)cc1 (centres unmarked) [Example 37] | < 1000 nM |
| CC(=O)NCc1ccc(S(=O)(=O)N(C)CC(C)(CCN2CCC3C(CCN3C(=O)OC(C)(C)C)C2)c2ccccc2)cc1 (centres unmarked) [Example 38] | < 100 nM |
| CN(CC(C)(CCN1CCC2C(CCN2C(=O)OC(C)(C)C)C1)c1ccccc1)S(=O)(=O)c1ccc(CNC(=O)OC(C)(C)C)cc1 (centres unmarked) [Example 39] | < 1000 nM |
| CN(CC(C)(CCN1CCC2C(CCN2C(=O)OC(C)(C)C)C1)c1ccccc1)S(=O)(=O)c1ccc(CNC(=O)O[C@H]2CCOC2)cc1 (some centres unmarked) [Example 40] | < 100 nM |
| CN(CC(C)(CCN1CCC2C(CCN2C(=O)OC(C)(C)C)C1)c1ccccc1)S(=O)(=O)c1ccc(CN)cc1 (centres unmarked) [Example 41] | < 1000 nM |
| CN(C[C@@](C)(CCN1CCC2C(CCN2C(=O)OC(C)(C)C)C1)c1ccccc1)S(=O)(=O)c1ccccc1 (some centres unmarked) [Example 43] | < 100 nM |
| CN(C[C@@](C)(CCN1CC[C@@H]2[C@@H](CCN2C(=O)OC(C)(C)C)C1)c1ccccc1)S(=O)(=O)c1ccccc1 [Example 44] | < 10 nM |
| CN(C[C@@](C)(CCN1CC[C@@H]2[C@@H](CCN2C(=O)OC(C)(C)C)C1)c1ccccc1)S(=O)(=O)c1ccccc1 [Example 46] | < 1000 nM |
| CC1CN(CC[C@](C)(CN(C)S(=O)(=O)c2ccccc2)c2ccccc2)CCC12C=Cc1ccccc12 (some centres unmarked) [Example 48] | < 1000 nM |
| COc1ccc(C(C)(CCN2CCC3C(CCN3C(=O)OC(C)(C)C)C2)CN(C)S(=O)(=O)c2ccccc2)cc1 (centres unmarked) [Example 49] | < 100 nM |

| Compound | IC50 |
| --- | --- |
| COc1cccc(C(C)(CCN2CCC3C(CCN3C(=O)OC(C)(C)C)C2)CN(C)S(=O)(=O)c2ccccc2)c1 (centres unmarked) [Example 50] | < 1000 nM |
| CN1N=C2CCN(CC[C@](C)(CN(C)S(=O)(=O)c3ccccc3)c3ccccc3)CC2(C)C1=O (some centres unmarked) [Example 51] | < 1000 nM |
| CN1N=C2CCN(CC[C@](C)(CN(C)S(=O)(=O)c3ccccc3)c3ccccc3)CC2(Cc2ccccc2)C1=O (some centres unmarked) [Example 52] | < 1000 nM |
| COC(=O)[C@@H](CCSC)NC(=O)C1CCN(CC[C@](C)(CN(C)S(=O)(=O)c2ccccc2)c2ccccc2)CC1 [Example 56] | < 1000 nM |
| CN(C[C@@](C)(CCN1CCC2(CC1)CCN(C(=O)OC(C)(C)C)C2)c1ccccc1)S(=O)(=O)c1ccccc1 [Example 58] | < 1000 nM |
| CN(C[C@@](C)(CCN1CC2CN(C(=O)OC(C)(C)C)[C@H]2C1)c1ccccc1)S(=O)(=O)c1ccccc1 (some centres unmarked) [Example 64] | < 1000 nM |
| CN(C[C@@](C)(CCN1CCC2(CCCN2C(=O)OC(C)(C)C)CC1)c1ccccc1)S(=O)(=O)c1ccccc1 [Example 65] | < 1000 nM |
| CN(C[C@@](C)(CCNC1C2CCC1CN(C(=O)OC(C)(C)C)C2)c1ccccc1)S(=O)(=O)c1ccccc1 (some centres unmarked) [Example 66] | < 1000 nM |
| CN(C[C@@](C)(CCNC1CC2CCC(C1)N2C(=O)OC(C)(C)C)c1ccccc1)S(=O)(=O)c1ccccc1 (some centres unmarked) [Example 67] | < 1000 nM |
| CN(C[C@@](C)(CCN1CC[C@H]2CNC(=O)[C@H]2C1)c1ccccc1)S(=O)(=O)c1ccccc1 [Example 69] | < 1000 nM |
| CN(C[C@@](C)(CCN1C2CCC1CC(NC(=O)OC(C)(C)C)C2)c1ccccc1)S(=O)(=O)c1ccccc1 (some centres unmarked) [Example 70] | < 1000 nM |
| CN(C[C@@](C)(CCN1CC[C@H]2OC(C)(C)O[C@H]2C1)c1ccccc1)S(=O)(=O)c1ccccc1 [Example 71] | < 1000 nM |
| CC(C)[C@H](NC(=O)OCc1ccccc1)C(=O)N1CC2CN(C(=O)OC(C)(C)C)CC[C@H]2C1 (some centres unmarked) [Example 72] | < 1000 nM |
| CC(C)(C)OC(=O)N1CC[C@H]2CN(C(=O)O[C@H]3CCOC3)C[C@H]2C1 [Example 74] | < 1000 nM |
| CN(C[C@@](C)(CCN1CC[C@H]2CN(C(=O)OCc3ccccc3)C[C@H]2C1)c1ccccc1)S(=O)(=O)c1ccccc1 [Example 75] | < 1000 nM |
| CN(C[C@@](C)(CCN1CC[C@H]2CN(C(N)=O)C[C@H]2C1)c1ccccc1)S(=O)(=O)c1ccccc1 [Example 76] | < 1000 nM |
| CN(C[C@@](C)(CCN1CCc2[nH][nH]c(=O)c2C1)c1ccccc1)S(=O)(=O)c1ccccc1 [Example 78] | < 1000 nM |
| C[C@H](NC(=O)N1CC2CN(CC[C@](C)(CN(C)S(=O)(=O)c3ccccc3)c3ccccc3)CC[C@H]2C1)c1cccc2ccccc12 (some centres unmarked) [Example 79] | < 1000 nM |
| Cc1nnc(C2CO[C@H]3OCCC23)n1C1CC2CCC(C1)N2CC[C@H](NC(=O)OCc1ccccc1)c1ccccc1 (some centres unmarked) [Example 80] | < 100 nM |
| Cc1nnc(C2CO[C@H]3OCCC23)n1C1CC2CCC(C1)N2CC[C@H](NS(=O)(=O)c1ccc2c(c1)OCO2)c1ccccc1 (some centres unmarked) [Example 81] | < 1000 nM |
| Cc1nnc(C2CO[C@H]3OCCC23)n1C1CC2CCC(C1)N2CC[C@H](N)c1ccccc1 (some centres unmarked) [Example 82] | < 1000 nM |
